According to PMC7413254 (Nature Communications, 2020):
Read-outs that look alike come from different tables or passages of the source.

Experiments:
[1] = target: T1, PfCRT^3D7 (Plasmodium falciparum, UniProt Q8IBZ9); assay: cell-based; assay type: cell-based; conditions: PfCRT3D7 oocytes, total [3H]CQ transport, normalised to the oocyte type control
How it was run: (§1)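 ND96, pH 5.5, 1.5 h, 27.5 °C; uptake direction acidic outside → oocyte cytosol, mimicking efflux from digestive vacuole. Ice-cold wash stop, 10% SDS lysis, scintillation counting. Ten oocytes/treatment, ≥4 independent experiments.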

[2] = system: PfCRT; assay: Test of solutes as potential co-substrates for influx of VF-6 via PfCRT into the oocyte; assay type: cell-based, Plasmodium falciparum; set-up: key: X: Compounds that have been tested as potential co-substrates but are not required for influx of VF-6 via PfCRT into the oocyte; conditions: X = tested
[3] = target: T2, PfCRT^Ecu1110 (Plasmodium falciparum, UniProt Q9N623, A220S/I356L/K76T/N326D); assay: [3H]CQ uptake into Xenopus oocytes, cis-inhibition by unlabelled solute; assay type: cell-based; conditions: for Uptake of [3H]CQ (% PfCRTEcu1110 control), cis-inhibition / PfCRT-mediated [3H]CQ transport, cis-inhibition (% PfCRTEcu1110 control): PfCRTEcu1110 oocytes; for Uptake of [3H]CQ (% PfCRTEcu1110 control), cis-inhibition: total [3H]CQ transport, normalised to the oocyte type control; for PfCRT-mediated [3H]CQ transport, cis-inhibition (% PfCRTEcu1110 control): background [3H]CQ accumulation subtracted, normalised to oocyte type control; for [3H]CQ transport (% PfCRTEcu1110 control), cis-inhibition, PfCRTEcu1110: PfCRT-mediated component (background subtracted), sheet title says normalised to PfCRTDd2 control, mean ± SEM, SEM
T2 sequence (Q9N623 whole entry A220S/I356L/K76T/N326D): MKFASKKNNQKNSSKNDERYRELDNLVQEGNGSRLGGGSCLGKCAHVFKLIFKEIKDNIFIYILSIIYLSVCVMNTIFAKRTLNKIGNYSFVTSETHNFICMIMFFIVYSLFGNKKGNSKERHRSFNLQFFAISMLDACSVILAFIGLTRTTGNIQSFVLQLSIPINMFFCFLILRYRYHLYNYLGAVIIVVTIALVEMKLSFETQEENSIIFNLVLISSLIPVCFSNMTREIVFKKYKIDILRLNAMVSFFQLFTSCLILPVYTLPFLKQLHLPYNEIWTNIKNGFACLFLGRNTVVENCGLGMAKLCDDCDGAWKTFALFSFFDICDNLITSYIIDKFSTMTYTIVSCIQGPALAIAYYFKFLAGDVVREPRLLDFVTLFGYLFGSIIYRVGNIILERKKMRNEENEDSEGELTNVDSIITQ
How it was run: as §1

[4] = target: T3, PfCRT^Dd2 (Plasmodium falciparum, UniProt Q9N623, A220S/I356T/K76T/M74I/N326S/N75E/Q271E/R371I); assay: as above; assay type: cell-based; conditions: PfCRTDd2 oocytes, background [3H]CQ accumulation subtracted, normalised to oocyte type control
T3 sequence (Q9N623 whole entry A220S/I356T/K76T/M74I/N326S/N75E/Q271E/R371I): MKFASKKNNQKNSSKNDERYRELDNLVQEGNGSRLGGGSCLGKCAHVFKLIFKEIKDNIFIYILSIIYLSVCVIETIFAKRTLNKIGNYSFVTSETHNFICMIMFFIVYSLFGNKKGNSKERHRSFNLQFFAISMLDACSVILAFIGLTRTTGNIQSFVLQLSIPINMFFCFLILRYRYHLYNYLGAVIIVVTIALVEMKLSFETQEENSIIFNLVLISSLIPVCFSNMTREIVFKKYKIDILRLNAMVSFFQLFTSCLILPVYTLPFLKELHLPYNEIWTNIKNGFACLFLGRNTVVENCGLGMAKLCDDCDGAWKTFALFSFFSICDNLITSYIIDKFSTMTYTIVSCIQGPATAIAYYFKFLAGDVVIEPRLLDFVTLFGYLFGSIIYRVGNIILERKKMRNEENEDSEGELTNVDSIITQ
How it was run: as §1

[5] = system: non-expressing oocytes; assay: cells; assay type: cell-based, Xenopus laevis; conditions: non-expressing oocytes, total [3H]CQ transport, normalised to the oocyte type control
How it was run: as §1

[6] = system: non-expressing oocytes; assay type: cell-based, Xenopus laevis; conditions: non-expressing oocytes, total [3H]CQ transport, normalised to the oocyte type control
How it was run: (§2)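 Oocytes (ten per treatment, ≥4 independent frogs/days) were preloaded by injecting VF-6 in 25 nL ND96 at pH 5.0, 5.5, 6.0 or 7.0, or Na^+-free choline buffer, then uptake run 1.5 h, 27.5 °C, ND96 pH 5.5 by default. Internal concentrations assumed ~400 nL oocyte volume.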

[7] = target: T2, PfCRT^Ecu1110; assay: cell-based; assay type: cell-based; conditions: for Uptake of [3H]CQ (% PfCRTEcu1110 control), trans-stimulation / PfCRT-mediated [3H]CQ transport, trans-stimulation (% PfCRTEcu1110 control): PfCRTEcu1110 oocytes; for Uptake of [3H]CQ (% PfCRTEcu1110 control), trans-stimulation: total [3H]CQ transport, normalised to the oocyte type control; for PfCRT-mediated [3H]CQ transport, trans-stimulation (% PfCRTEcu1110 control): normalised to oocyte type control; for [3H]CQ transport (% PfCRTDd2 control), trans-stimulation, PfCRTEcu1110: PfCRT-mediated component (background subtracted), sheet title says normalised to PfCRTDd2 control, mean ± SEM, SEM
How it was run: as §2

[8] = target: T4, PfNT1 (Plasmodium falciparum, UniProt Q8IDM6); assay: cell-based; assay type: cell-based; conditions: PfNT1 oocytes, total [3H]CQ transport, normalised to the oocyte type control
T4 construct: expressed in transfected cells; host or cells: Xenopus laevis oocytes (stage V-VI), cRNA-injected
T4 sequence (Q8IDM6 whole entry): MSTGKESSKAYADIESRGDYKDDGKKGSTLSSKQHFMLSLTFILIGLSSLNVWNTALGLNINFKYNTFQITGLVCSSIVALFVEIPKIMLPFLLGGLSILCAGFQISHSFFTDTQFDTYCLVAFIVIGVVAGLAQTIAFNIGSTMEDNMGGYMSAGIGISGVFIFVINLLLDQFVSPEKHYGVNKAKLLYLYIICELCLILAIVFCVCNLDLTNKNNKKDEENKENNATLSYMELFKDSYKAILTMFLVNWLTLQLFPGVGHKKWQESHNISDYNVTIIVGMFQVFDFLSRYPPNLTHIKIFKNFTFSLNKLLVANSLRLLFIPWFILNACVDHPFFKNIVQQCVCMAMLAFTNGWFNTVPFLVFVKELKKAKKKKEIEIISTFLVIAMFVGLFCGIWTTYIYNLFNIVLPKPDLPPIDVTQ
How it was run: as §2

[9] = target: T1, PfCRT^3D7; assay: cell-based; assay type: cell-based; conditions: PfCRT3D7 oocytes; for Uptake of [3H]CQ (% PfCRT3D7 control), trans-stimulation: total [3H]CQ transport, normalised to the oocyte type control; for PfCRT-mediated [3H]CQ transport, trans-stimulation (% PfCRT3D7 control): normalised to oocyte type control
How it was run: as §2

[10] = target: T3, PfCRT^Dd2; assay: cell-based; assay type: cell-based; conditions: for PfCRT-mediated [3H]CQ transport, trans-stimulation (% PfCRTDd2 control): normalised to oocyte type control; for [3H]CQ transport (% PfCRTDd2 control), trans-stimulation, PfCRTDd2: PfCRT-mediated component (background subtracted), mean ± SEM, SEM
How it was run: as §2

[11] = [test solute]i = 45 mM (30 mM for some solutes due to solubility)
[12] = [test solute]i = 5 mM (intracellular)
[13] = [test solute]i = 45 mM (intracellular; 30 mM for some solutes due to solubility)
[14] = [test solute]i = 5 mM (injected)

T1 sequence (Q8IBZ9 59-398): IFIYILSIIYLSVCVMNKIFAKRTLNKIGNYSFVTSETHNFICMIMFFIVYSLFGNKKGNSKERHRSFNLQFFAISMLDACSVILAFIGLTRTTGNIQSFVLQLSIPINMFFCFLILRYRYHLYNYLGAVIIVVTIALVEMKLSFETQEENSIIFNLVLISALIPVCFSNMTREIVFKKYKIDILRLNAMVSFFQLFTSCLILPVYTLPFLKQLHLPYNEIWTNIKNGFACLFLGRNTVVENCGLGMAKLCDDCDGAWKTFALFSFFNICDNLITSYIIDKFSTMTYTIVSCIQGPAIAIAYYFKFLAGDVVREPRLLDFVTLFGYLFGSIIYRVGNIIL

In the case of PVNF [PF-4], the “Uptake of [3H]CQ (% PfCRT3D7 control), cis-inhibition” value ([1]; [test solute] = 0.5 mM) is reported as 99 ± 4.7 % PfCRT3D7 control, the “Uptake of [3H]CQ (% PfCRT3D7 control), cis-inhibition” value ([1]; [test solute] = 1 mM) is reported as 100 ± 5.6 % PfCRT3D7 control and the “Uptake of [3H]CQ (% PfCRT3D7 control), cis-inhibition” value ([1]; [test solute] = 2 mM) is reported as 101 ± 5.3 % PfCRT3D7 control. For the same substance, the “Tested as potential co-substrate but not required for influx of VF-6 via PfCRT into the oocyte” value [2] was “X”, the “Uptake of [3H]CQ (% PfCRTEcu1110 control), cis-inhibition” value ([3]; [test solute] = 0.5 mM) was 65 ± 4.3 % PfCRTEcu1110 control and the “Uptake of [3H]CQ (% PfCRTEcu1110 control), cis-inhibition” value ([3]; [test solute] = 1 mM) was 59 ± 3.3 % PfCRTEcu1110 control. The “Uptake of [3H]CQ (% PfCRTEcu1110 control), cis-inhibition” value ([3]; [test solute] = 2 mM) was 41 ± 2.4 % PfCRTEcu1110 control, the “PfCRT-mediated [3H]CQ transport, cis-inhibition (% PfCRTEcu1110 control)” value ([3]; [test solute] = 0.5 mM) was 61 ± 2.6 % PfCRTEcu1110 control and the “PfCRT-mediated [3H]CQ transport, cis-inhibition (% PfCRTEcu1110 control)” value ([3]; [test solute] = 1 mM) was 51 ± 4.2 % PfCRTEcu1110 control. The “PfCRT-mediated [3H]CQ transport, cis-inhibition (% PfCRTEcu1110 control)” value ([3]; [test solute] = 2 mM) was 37 ± 2.9 % PfCRTEcu1110 control, the “[3H]CQ transport (% PfCRTEcu1110 control), cis-inhibition, PfCRTEcu1110” value ([3]; [test solute] = 1 mM) was 16 ± 0.2 % PfCRTEcu1110 control and the “[3H]CQ transport (% PfCRTEcu1110 control), cis-inhibition, PfCRTEcu1110” value ([3]; [test solute] = 2 mM) was 12 ± 0.3 % PfCRTEcu1110 control. The “PfCRT-mediated [3H]CQ transport, cis-inhibition (% PfCRTDd2 control)” value ([4]; [test solute] = 0.5 mM) was 60 ± 3.3 % PfCRTDd2 control, the “PfCRT-mediated [3H]CQ transport, cis-inhibition (% PfCRTDd2 control)” value ([4]; [test solute] = 1 mM) was 51 ± 0.3 % PfCRTDd2 control and the “PfCRT-mediated [3H]CQ transport, cis-inhibition (% PfCRTDd2 control)” value ([4]; [test solute] = 2 mM) was 39 ± 2.1 % PfCRTDd2 control. For the same substance, the “Uptake of [3H]CQ (% non-expressing oocyte control), cis-inhibition” value ([5]; [test solute] = 0.5 mM) was 98 ± 4.8 % non-expressing oocyte control, the “Uptake of [3H]CQ (% non-expressing oocyte control), cis-inhibition” value ([5]; [test solute] = 1 mM) was 99 ± 2.6 % non-expressing oocyte control and the “Uptake of [3H]CQ (% non-expressing oocyte control), cis-inhibition” value ([5]; [test solute] = 2 mM) was 98 ± 3.6 % non-expressing oocyte control. For the same substance, the “Uptake of [3H]CQ (% non-expressing oocyte control), trans-stimulation” value ([6]; [test solute]i = 5 mM) was 99 ± 2.7 % non-expressing oocyte control, the “Uptake of [3H]CQ (% non-expressing oocyte control), trans-stimulation” value [6, 11] was 99 ± 3.4 % non-expressing oocyte control and the “Uptake of [3H]CQ (% PfCRTEcu1110 control), trans-stimulation” value ([7]; [test solute]i = 5 mM) was 120 ± 1.1 % PfCRTEcu1110 control. For the same substance, the “Uptake of [3H]CQ (% PfCRTEcu1110 control), trans-stimulation” value [7, 11] was 135 ± 1.4 % PfCRTEcu1110 control, the “PfCRT-mediated [3H]CQ transport, trans-stimulation (% PfCRTEcu1110 control)” value [7, 12] was 118 ± 0.3 % PfCRTEcu1110 control and the “PfCRT-mediated [3H]CQ transport, trans-stimulation (% PfCRTEcu1110 control)” value [7, 13] was 130 ± 3.2 % PfCRTEcu1110 control. The “[3H]CQ transport (% PfCRTDd2 control), trans-stimulation, PfCRTEcu1110” value [7, 14] was 36 ± 1.3 % PfCRTEcu1110 control, the “[3H]CQ transport (% PfCRTDd2 control), trans-stimulation, PfCRTEcu1110” value [7, 11] was 39 ± 1.7 % PfCRTEcu1110 control and the “Uptake of [3H]CQ (% PfNT1 control), trans-stimulation” value ([8]; [test solute]i = 5 mM) was 99 ± 4.2 % PfNT1 control. The “Uptake of [3H]CQ (% PfNT1 control), trans-stimulation” value [8, 11] was 100 ± 2.9 % PfNT1 control, the “Uptake of [3H]CQ (% PfCRT3D7 control), trans-stimulation” value ([9]; [test solute]i = 5 mM) was 138 ± 4.2 % PfCRT3D7 control and the “Uptake of [3H]CQ (% PfCRT3D7 control), trans-stimulation” value [9, 11] was 163 ± 7.4 % PfCRT3D7 control. For the same substance, the “PfCRT-mediated [3H]CQ transport, trans-stimulation (% PfCRT3D7 control)” value [9, 12] was 130 ± 3.2 % PfCRT3D7 control, the “PfCRT-mediated [3H]CQ transport, trans-stimulation (% PfCRT3D7 control)” value [9, 13] was 157 ± 4.4 % PfCRT3D7 control and the “Uptake of [3H]CQ (% PfCRTDd2 control), trans-stimulation” value ([10]; PfCRTDd2 oocytes, [test solute]i = 45 mM (30 mM for some solutes due to solubility), total [3H]CQ transport, normalised to the oocyte type control) was 115 ± 2.7 % PfCRTDd2 control. For the same substance, the “PfCRT-mediated [3H]CQ transport, trans-stimulation (% PfCRTDd2 control)” value ([10]; [test solute]i = 5 mM (intracellular), PfCRTDd2 oocytes) was 99 ± 1.9 % PfCRTDd2 control, the “PfCRT-mediated [3H]CQ transport, trans-stimulation (% PfCRTDd2 control)” value ([10]; [test solute]i = 45 mM (intracellular; 30 mM for some solutes due to solubility), PfCRTDd2 oocytes) was 112 ± 0.9 % PfCRTDd2 control and the “[3H]CQ transport (% PfCRTDd2 control), trans-stimulation, PfCRTDd2” value [10, 14] was 99 ± 1.9 % PfCRTDd2 control. For the same substance, the “[3H]CQ transport (% PfCRTDd2 control), trans-stimulation, PfCRTDd2” value [10, 11] was 112 ± 0.9 % PfCRTDd2 control.
